From patent US20190106460A1, “BINDING INHIBITORS OF THE BETA. TRANSDUCIN REPEAT-CONTAINING PROTEIN” (priority 2011, published 2019)
Where two headings read alike, the source gives them in different places. Starred links: 1 amine or outer side, 2 acyl side, 3 side chain; linkers in the order of their positions; H or OH if unused. Non-standard residues stand in square brackets, D forms with d. Residues, ends and D or L forms follow the SMILES beside them. *: point of attachment. Phe(4-NO2) = N[C@@H](Cc1ccc([N+](=O)[O-])cc1)C(=O)O; Phe(3-Cl) = N[C@@H](Cc1cccc(Cl)c1)C(=O)O; Phe(3-F) = N[C@@H](Cc1cccc(F)c1)C(=O)O; Phe(4-F) = N[C@@H](Cc1ccc(F)cc1)C(=O)O; Phe(2-F) = N[C@@H](Cc1ccccc1F)C(=O)O; pS = N[C@@H](COP(=O)(O)O)C(=O)O; Suc = O=C(CCC(=O)[*:2])[*:1]; Tos = Cc1ccc(S(=O)(=O)*)cc1

Columns and labels:
[1] = molecular target: βTrCP (Homo sapiens, UniProt Q9Y297); test: Fluorescence polarisation (FP) binding assay with fluorescein-tagged IκB peptide
Target sequence in this assay (P63208 whole entry partner, one chain of several): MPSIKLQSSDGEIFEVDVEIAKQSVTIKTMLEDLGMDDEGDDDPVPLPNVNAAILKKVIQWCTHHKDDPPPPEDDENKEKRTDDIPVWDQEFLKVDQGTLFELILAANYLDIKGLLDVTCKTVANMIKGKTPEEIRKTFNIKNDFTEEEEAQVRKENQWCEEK

[2] = molecular target: βTrCP/Skp1 (Homo sapiens, UniProt Q9Y297); test: Surface plasmon resonance (SPR), Biacore T200; assay type: binding; conditions: apparent KD averaged over both surfaces
Protocol: Surface Plasmon Resonance (SPR)
Experiments were carried out using the Biacore T200 SPR detection system. This system exploits the phenomenon of surface plasmon resonance (SPR) to monitor interactions between molecules. The system involves the attachment of one interacting partner to a surface (an appropriate sensor chip) while the other interacting partner is passed over it in solution. The binding of molecules to the surface generates an SPR response (measured in response units (RU)) that is proportional to the mass and amount of the biomolecule (in this case βTrCP/Skp1) bound to the chip. The relative responses obtained are dependent on the concentration of the molecule binding. At RUmaximum, the attached protein's binding sites are saturated. Binding events can be followed in real time and a range of interaction characteristics can be determined including kinetics, specificity of interactions and the concentration of specific molecules in a sample.
As βTrCP was His tagged, an NTA sensor chip was used. This sensor chip has a dextran surface matrix with immobilized nitrilotriacetic acid (NTA) which provides a means of capturing polyHis-tagged proteins through Nickel chelation. It was hoped that addition of Ni^+ would orient the protein in a specific (and hopefully active) manner as it is covalently immobilised via amine coupling. Addition of EDC:NHS (N-ethyl-N′-(3-[…])-carbodiimide:N-hydroxysuccinimide) converts carboxyl groups on the dextran sensor chip surface to succinamide esters which readily form covalent bonds with primary amines. Each chip contains four flow cells (each a separate surface) which means that compounds/peptides can be passed over different forms of βTrCP and a reference surface simultaneously. If binding to βTrCP is occurring, responses should be the same (accounting for differences in density of surface etc) on each surface.
Two different βTrCP protein complexes were immobilised on to an NTA biacore sensor chip. One included the GSTSkp1 fusion (HisβTrCP/GSTSkp1) while the other was immobilised after GST Removal by Thrombin (HisβTrCP/Skp1). To ensure that the GST moiety is completely removed from Skp1, βTrCP/GSTSkp1 was incubated with thrombin ((10units/mg protein) for at least 16 hours at room temperature in 10mMHEPES 150mMNaCl pH7.4+2 mM CaCl2. Thrombin and GST were removed from βTrCP/Skp1 by buffer exchange through a 50 KDa MWCO vivaspin concentrator.
Protein Immobilisation Procedure for NTA Chip
Ni+ (500 μM NiCl) loaded on to surface at a flow rate of 5 μl/min for 60s. EDC/NHS (activates dextran carboxylates) loaded at a flow rate of 5 μl/min for 240s. Protein ([protein]=100 nM to 1 μM) loaded at a flow rate of 10 μl/min for 180s. Strip solution (350 μM EDTA/1M NaCl) added at flow rate of 10 μl/min for 30s (to chelate excess Ni+ and remove non-covalently bound protein e.g. protein oligomers). Quench solution (ethanolamine) at flow rate of 5 μl/min for 240s (to deactivate surface molecules on the chip that have not crosslinked protein). The immobilisation buffer used was 10 mM HEPES pH 7.4, 150 mM NaCl,
GST Capture Procedure (for Immobilisation Via GSTSkp1)
EDC:NHS was injected at 5 μl/min for 4 min to activate surface for amine coupling (this converts carboxyl groups on the surface of the chip to succinamide esters that react with primary amines)
Anti-GST (60 μg/ml). was loaded at 10 μl/min for 4 min resulting in an increase in response units of 6730 (Biacore manual states it should result in ˜7000)
Ethanolamine was injected at 5 μl/min for 5 min to deactivate remaining unreacted esters at surface (quenching).
Injection of a low concentration of purified GST (from kit) was injected for 3 mins at 5 μl/min before running a regeneration cycle with glycine pH2.0 that disrupts the antibody-GST interaction. […]

[3] = molecular target: T1, βTrCP (Homo sapiens, UniProt Q9Y297); test: Biotin pull down assay with biotinylated IκB peptide; assay type: binding; conditions: for Biotin Pulldown Assay 10 μM: 10 μM compound; for Biotin Pulldown Assay 100 μM: 100 μM compound
T1 sequence (Q9Y297 1-605): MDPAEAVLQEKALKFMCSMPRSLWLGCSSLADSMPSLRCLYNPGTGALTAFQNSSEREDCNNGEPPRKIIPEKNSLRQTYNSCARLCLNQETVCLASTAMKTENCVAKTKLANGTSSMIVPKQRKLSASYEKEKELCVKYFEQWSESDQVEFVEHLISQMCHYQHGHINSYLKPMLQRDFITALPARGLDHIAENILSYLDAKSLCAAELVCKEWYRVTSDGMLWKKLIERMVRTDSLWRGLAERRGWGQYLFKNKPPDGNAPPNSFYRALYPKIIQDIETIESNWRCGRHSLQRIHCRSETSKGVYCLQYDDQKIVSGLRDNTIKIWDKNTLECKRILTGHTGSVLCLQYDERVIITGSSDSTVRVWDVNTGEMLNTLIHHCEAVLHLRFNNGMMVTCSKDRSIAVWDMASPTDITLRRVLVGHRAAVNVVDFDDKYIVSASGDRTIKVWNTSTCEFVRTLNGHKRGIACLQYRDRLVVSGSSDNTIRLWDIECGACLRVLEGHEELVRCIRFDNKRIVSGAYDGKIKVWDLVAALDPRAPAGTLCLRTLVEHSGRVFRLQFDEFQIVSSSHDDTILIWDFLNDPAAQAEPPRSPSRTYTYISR

[4] = molecular target: β-TrCP1/Skp1 (Homo sapiens, UniProt Q9Y297); test: βTrCP ubiquitination assay (Ub assay); assay type: biochemical; conditions: for Ub Assay 10 μM: 10 μM compound; for Ub Assay 100 μM: 100 μM compound
Protocol: (§1) βTrCP Ubiquitination Assay and Selectivity Assays
0.5 μM Peptide substrate (biotin)
(§2) Master mixes were prepared in a 50 mM Herpes buffer at pH 7.5, in 75 mM NaCl and 1 mM DTT without Mg or ATP and peptides were added to a final concentration of 100 μM. Reactions were incubated at room temperature for 30 minutes and then Mg/ATP was added to the mix. Reactions were further incubated for an additional 60 minutes and then stopped by adding SDS gel loading buffer and boiled for 5 minutes. Reactions were run on SDS-PAGE (10%) and transferred to nitrocellulose membranes and probed with HRP-Streptavidin.
Candidate compounds were tested in duplicate at both 10 and 100 μM against the E3 ligase cascades βTrCP(IκBα) and βTrCP(β-catenin). The E3 assays were carried out according to the component concentrations detailed in Table 9. In each case the E2 was HA,6His-UbcH3-(hu,FL), the E1 was 6His-UBE1-(hu,FL) and the ubiquitin (Sigma U6253) was biotinylated at a 5:1 ratio. Substrate phosphorylation was performed in the absence of compound; consequently any observed signal modulation should not reflect inhibition of the up-stream kinase reaction. All other steps (E1, E2 and substrate ubiquitination) were carried out in the presence of compound. The stopped reaction mix (10 μl) was added to an ECL plate loaded with anti c-Myc ( 1/500 Dilution, Millipore 05-724) and blocked with 5% BSA. Binding was allowed to proceed for 1 hour at RT before a wash step (3 40 μl PBST washes). Detection was achieved by binding SA-Ru TAG at 1 μg/ml (1 hour @ RT, 3 40 μl PBST washes) before reading on an MSD Sector Imager 6000.
Assays were performed as described above

[5] = molecular target: Skp2 (Homo sapiens, UniProt Q13309); test: Selectivity assay vs other E3s: Skp2; assay type: biochemical; conditions: for inhibition at 100 µM: value in brackets, read-out: % Inhibition Skp2 @ (100 μM); for inhibition at 10 µM: read-out: % Inhibition Skp2 @ 10 μM
Protocol: as §1, §2
(§3) Candidate compounds were tested for inhibition of Fbw7 and Skp2 as described above.

[6] = molecular target: FBW7/Skp1 (Homo sapiens, UniProt Q969H0); test: Selectivity assay vs other E3s: Fbw7; assay type: biochemical; conditions: for inhibition at 100 µM: value in brackets, read-out: % Inhibition Fbw7 @ (100 μM); for inhibition at 10 µM: read-out: % Inhibition Fbw7 @ 10 μM
Protocol: as §1, §2
FBW7 selectivity assays were performed in the same manner except using FBW7/Skp1 as E3 component and cyclin E as the substrate. Blots were probed using anti-cyclin E antibody.
as §3

[7] = Table 11, with spread, read-out: FP IC50/μM
[8] = Tables 1, 3, 7, 8, 10 nM fluorescein-tagged IκB peptide, read-out: FP Assay IC50/μM

Skp2, sequence (Q13309 whole entry, species assumed): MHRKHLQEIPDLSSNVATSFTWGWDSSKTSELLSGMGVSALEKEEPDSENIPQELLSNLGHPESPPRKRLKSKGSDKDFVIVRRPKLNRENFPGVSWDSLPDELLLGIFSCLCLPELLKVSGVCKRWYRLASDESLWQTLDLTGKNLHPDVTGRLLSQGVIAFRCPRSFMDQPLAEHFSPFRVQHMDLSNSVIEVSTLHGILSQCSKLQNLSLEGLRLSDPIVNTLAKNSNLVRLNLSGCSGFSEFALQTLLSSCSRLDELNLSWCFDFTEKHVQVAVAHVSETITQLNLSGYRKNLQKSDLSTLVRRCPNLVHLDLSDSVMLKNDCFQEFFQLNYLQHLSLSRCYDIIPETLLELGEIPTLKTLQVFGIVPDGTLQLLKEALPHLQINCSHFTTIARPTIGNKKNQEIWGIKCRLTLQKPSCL
Skp2, sequence (P63208 whole entry partner, species assumed): as the sequence (P63208 whole entry partner, one chain of several) above
Skp2, sequence (Q13616 whole entry partner, species assumed): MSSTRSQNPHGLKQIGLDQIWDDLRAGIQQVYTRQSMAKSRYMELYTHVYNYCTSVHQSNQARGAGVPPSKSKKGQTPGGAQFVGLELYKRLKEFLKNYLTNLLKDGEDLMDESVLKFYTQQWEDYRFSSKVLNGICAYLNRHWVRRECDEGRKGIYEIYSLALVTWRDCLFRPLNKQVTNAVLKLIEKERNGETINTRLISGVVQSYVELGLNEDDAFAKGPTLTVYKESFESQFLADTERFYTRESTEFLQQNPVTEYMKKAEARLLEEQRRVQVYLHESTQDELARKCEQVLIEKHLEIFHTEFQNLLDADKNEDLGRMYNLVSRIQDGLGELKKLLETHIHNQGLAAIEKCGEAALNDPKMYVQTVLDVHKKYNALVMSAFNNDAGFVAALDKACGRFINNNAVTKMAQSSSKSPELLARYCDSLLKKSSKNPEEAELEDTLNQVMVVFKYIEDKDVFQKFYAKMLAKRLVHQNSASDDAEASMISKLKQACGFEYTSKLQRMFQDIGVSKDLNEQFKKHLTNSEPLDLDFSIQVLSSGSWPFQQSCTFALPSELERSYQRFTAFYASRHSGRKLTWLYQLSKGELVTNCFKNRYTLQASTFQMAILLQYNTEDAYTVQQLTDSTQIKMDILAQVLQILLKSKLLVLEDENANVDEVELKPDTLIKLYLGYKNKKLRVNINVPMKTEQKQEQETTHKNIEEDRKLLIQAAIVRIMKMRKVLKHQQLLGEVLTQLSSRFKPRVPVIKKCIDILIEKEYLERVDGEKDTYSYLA
Skp2, sequence (P62877 whole entry partner, species assumed): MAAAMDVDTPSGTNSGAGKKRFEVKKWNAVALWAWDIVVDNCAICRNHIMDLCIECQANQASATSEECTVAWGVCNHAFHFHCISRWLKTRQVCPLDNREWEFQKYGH
β-TrCP1/Skp1, sequence (P63208 2-163 partner limits assumed, one chain of several): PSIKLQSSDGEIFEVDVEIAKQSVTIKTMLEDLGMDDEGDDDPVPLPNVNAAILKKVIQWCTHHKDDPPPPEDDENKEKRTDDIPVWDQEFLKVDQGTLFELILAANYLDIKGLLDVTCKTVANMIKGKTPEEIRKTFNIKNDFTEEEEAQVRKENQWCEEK
βTrCP/Skp1, sequence (P63208 whole entry partner, one chain of several): as the sequence (P63208 whole entry partner, one chain of several) above
FBW7/Skp1, sequence (Q969H0 whole entry, species assumed): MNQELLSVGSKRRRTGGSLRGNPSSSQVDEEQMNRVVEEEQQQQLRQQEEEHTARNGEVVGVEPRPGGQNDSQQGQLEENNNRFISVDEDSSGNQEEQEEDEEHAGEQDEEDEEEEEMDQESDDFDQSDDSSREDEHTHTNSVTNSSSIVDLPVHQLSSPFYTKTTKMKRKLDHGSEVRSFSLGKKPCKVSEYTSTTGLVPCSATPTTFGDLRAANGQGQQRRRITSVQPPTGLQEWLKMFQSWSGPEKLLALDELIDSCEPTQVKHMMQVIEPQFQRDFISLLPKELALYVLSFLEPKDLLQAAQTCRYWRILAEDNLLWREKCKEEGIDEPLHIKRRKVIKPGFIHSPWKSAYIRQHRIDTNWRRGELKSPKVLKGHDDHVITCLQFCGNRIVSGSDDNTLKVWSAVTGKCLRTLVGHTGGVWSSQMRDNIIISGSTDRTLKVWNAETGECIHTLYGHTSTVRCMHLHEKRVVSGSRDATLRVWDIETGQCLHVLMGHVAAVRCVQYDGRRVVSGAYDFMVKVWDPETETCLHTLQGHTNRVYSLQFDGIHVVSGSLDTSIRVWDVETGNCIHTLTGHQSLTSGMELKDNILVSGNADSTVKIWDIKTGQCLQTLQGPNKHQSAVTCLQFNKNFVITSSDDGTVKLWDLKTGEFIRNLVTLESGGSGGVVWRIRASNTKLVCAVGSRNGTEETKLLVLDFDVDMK
FBW7/Skp1, sequence (P63208 whole entry partner, species assumed): as the sequence (P63208 whole entry partner, one chain of several) above
FBW7/Skp1, sequence (Q13616 whole entry partner, species assumed): as the sequence (Q13616 whole entry partner, species assumed) above
FBW7/Skp1, sequence (P62877 whole entry partner, species assumed): as the sequence (P62877 whole entry partner, species assumed) above

Row | SMILES | IC50 [1, 7] [µM] | Kd [2] [µM] | Biotin Pulldown Assay 10 μM [3] | Biotin Pulldown Assay 100 μM [3] | Ub Assay 10 μM [4] | Ub Assay 100 μM [4] | inhibition at 100 µM [5] [%] | inhibition at 10 µM [5] [%] | inhibition at 100 µM [6] [%] | inhibition at 10 µM [6] [%] | IC50 [1, 8] [µM]
1 | CC[C@H](C)[C@H](NC(=O)CNC(=O)[C@H](COP(=O)(O)O)NC(=O)[C@@H](N)CC(=O)O)C(=O)N[C@@H](Cc1ccccc1)C(=O)N[C@@H](CCC(=O)O)C(N)=O [UBP001, DpSGIFE-NH2] (H-D[pS]GIFE-NH2) | 1.24 ± 0.145 | 1.48 ± 0.286 | reduces/ | inhibits | reduces/ | inhibits | 13 | 8 | 0 | 0 | 
2 | NC(=O)[C@H](CCC(=O)O)NC(=O)[C@H](Cc1ccc([N+](=O)[O-])cc1)NC(=O)[C@H](Cc1ccccc1F)NC(=O)CNC(=O)[C@H](CCC(=O)O)NC(=O)CCC(=O)O [UBP003, Suc-EGF(2F)F(4NO2)E-NH2] (Suc-EG[Phe(2-F)][Phe(4-NO2)]E-NH2) | 4.91 ± 0.702 | 8 ± 0.26 | no effect/ | reduces | no effect/ | inhibits | 11 | 8 | 0 | 0 | 
3 | NC(=O)[C@H](CCC(=O)O)NC(=O)[C@H](Cc1ccc([N+](=O)[O-])cc1)NC(=O)[C@H](Cc1cccc(F)c1)NC(=O)CNC(=O)[C@H](CCC(=O)O)NC(=O)CCC(=O)O [UBP004, Suc-EGF(3F)F(4NO2)E-NH2] (Suc-EG[Phe(3-F)][Phe(4-NO2)]E-NH2) | 0.522 ± 0.049 | 4.53 ± 0.681 | reduces/ | inhibits | inhibits/ | inhibits | 3 | 0 | 2 | 0 | 
4 | NC(=O)[C@H](CCC(=O)O)NC(=O)[C@H](Cc1ccc([N+](=O)[O-])cc1)NC(=O)[C@H](Cc1ccc(F)cc1)NC(=O)CNC(=O)[C@H](CCC(=O)O)NC(=O)CCC(=O)O [UBP005, Suc-EGF(4F)F(4NO2)E-NH2] (Suc-EG[Phe(4-F)][Phe(4-NO2)]E-NH2) | 1.21 ± 0.093 | 0.507 ± 0.267 | no effect/ | inhibits | reduces/ | inhibits | 0 | 0 | 0 | 0 | 
5 | COc1ccc(C[C@H](NC(=O)[C@H](Cc2ccccc2F)NC(=O)CNC(=O)[C@H](CCC(=O)O)NC(=O)CCC(=O)O)C(=O)N[C@@H](CCC(=O)O)C(N)=O)cc1 [UBP006, Suc-EGF(2F)Y(Me)E-NH2] (Suc-EG[Phe(2-F)]Y(Me)E-NH2) | 3.28 ± 0.5 | 4.4 ± 0.82 | no effect/ | reduces | no effect/ | inhibits | 4 | 0 | 4 | 0 | 3.2
6 | NC(=O)[C@H](CCC(=O)O)NC(=O)[C@H](Cc1ccccc1)NC(=O)[C@H](Cc1ccc(O)cc1)NC(=O)CNC(=O)[C@H](CCC(=O)O)NC(=O)CCC(=O)O [UBP007, Suc-EGYFE-NH2] (Suc-EGYFE-NH2) | 1.04 ± 0.101 | 0.537 ± 0.117 | no effect/ | inhibits | reduces/ | inhibits | 28 | 11 | 0 | 0 | 1
7 | Cc1ccc(S(=O)(=O)N[C@H](CC(=O)O)C(=O)N[C@@H](CCC(=O)O)C(=O)NCC(=O)N[C@@H](Cc2cccc(Cl)c2)C(=O)N[C@@H](Cc2c[nH]c3ccccc23)C(=O)N[C@@H](CCC(=O)O)C(N)=O)cc1 [UBP034, Ts-dEGF(3Cl)WE-NH2] (Tos-[dD]EG[Phe(3-Cl)]WE-NH2) | 0.01 ± 0.002 |  | s. reduces/ | inhibits | inhibits/ | inhibits | 0 | 0 | 6 | 8 | 
